US9598407B2, “Antibacterial piperidinyl substituted 3,4-dihydro-1H-[1,8]naphthyridinones” (JANSSEN SCIENCES IRELAND UC, priority 2011, dated 2017)

How the values were obtained:
[1] = biological target: S. aureus ATCC 29213 FabI (Staphylococcus aureus (strain MRSA252), UniProt Q6GI75); test: Staphylococcus aureus FabI enzyme inhibition assay; type: biochemical; conditions: 30 minutes at room temperature, pH 6.5
Protocol: D.1 FabI Enzyme Inhibition: Staphylococcus aureus FabI Enzyme Inhibition Assay
FabI enzyme inhibition assays were carried out in half-area, 384-well microtitre plates. Compounds were evaluated in 40-μl assay mixtures containing 100 mM NaADA, pH 6.5 (ADA=N-[2-acetamido]-2iminodiacetic acid), 250 μM crotonoyl-CoA, 625 μM NADH and 50 μg/ml S. aureus ATCC 29213 FabI Inhibitors were typically varied over the range of 50 to 0.39 μM. The reaction mixtures were incubated for 30 minutes at room temperature and the reaction was stopped by adding 200 mM Tris buffer (pH 9.0) to create a pH-shift. The consumption of NADH was monitored by measuring the change in absorbance at […]. By comparing sample readings to those of negative (absence of compound) and positive (absence of enzyme) controls, the percent inhibition of enzymatic activity of the compounds was determined A best-fit curve is fitted by a minimum of squares method. From this an IC50-value (expressed in μg/ml), resulting in 50% inhibition of enzymatic activity, was obtained.

Human HelaM cells = test: Cytotoxicity MTT assay (TOX HELAM 222.125); type: cell-based; conditions: 72 hours
Protocol: Cytotoxicity of the compounds was evaluated using the MTT assay. Human HelaM cells grown in 96-well plates were exposed to serial dilutions of the tested compounds (final volume of 0.2 ml) and incubated for 72 hours at 37° C. and 5% CO2 Inhibitors are typically varied over the range of 25 to 0.8 μM. The final DMSO concentration in the assay is 0.5%. MTT (3-(4,5-Dimethylthiazol-2-yl)-2,5-diphenyltetrazolium bromide, a tetrazole) was added and reduced to purple formazan only in living cells. Solubilization of the formazan crystals was achieved by adding 100 μl 2-propanol. Cell viability was determined by measuring the absorbance of the reduced formazan, giving a purple color, at 540 nm and 690 nm. The absorbance measured at 690 nm was automatically subtracted from the absorbance at 540 nm, to eliminate the effects of non-specific absorption. The percent cytotoxicity achieved by the compounds was calculated according to standard methods. Cytotoxicity is reported as CC50, the concentration that causes a 50% reduction in cell viability.
The results are depicted in the table D2 below (TOX HELAM).

[2] = system: Staphylococcus aureus ATCC 29213; test: Antibacterial susceptibility testing, IC90 determination (STA 361.159); type: cell-based; conditions: STA ATCC 29213; 90% inhibitory concentration for bacterial growth
Protocol: D.2 In Vitro Method for Testing Compounds for Antibacterial Activity Against Various Bacterial Strains Preparation of Bacterial Suspensions for Susceptibility Testing
(§1) The following bacteria were used: Staphylococcus aureus ATCC 29213, methicillin-resistant Staphylococcus aureus (MRSA) ATCC 700788 and Escherichia coli ATCC 35218. The bacteria used in this study were grown overnight in flasks containing 100 ml Mueller-Hinton broth (Difco cat. nr. 0757-17) in sterile de-ionized water, with shaking, at 37° C. Stocks were store at −70° C. until use.
(§2) Bacteria were incubated on a tryptic soy agar plate containing 5% sheep blood (Becton Dickinson cat. nr. 254053) for 18-24 hours at 35° C. in aerobic conditions (first passage). For the second passage, fresh Mueller-Hinton broth is inoculated with 5-10 colonies and grown overnight at 35° C. until turbidity (reaching log-phase) in aerobic conditions is reached. The bacterial suspension is then adjusted to 0.5 McFarland density and further diluted 1:100 in Mueller Hinton broth medium. This is used as inoculum.
Antibacterial Susceptibility Testing: IC90 Determination
(§3) MIC assays were performed by the broth microdilution method in a 96-well format (flat-bottom microtitre plates) with a final volume of 0.1 ml Mueller Hinton broth containing two-fold serial dilutions of compounds and inoculated with 5×10^5 CFU/ml of bacteria (standard inoculum size according to CLSI guidelines). Inhibitors are typically varied over the range of 63 to 0.49 μM. The final DMSO concentration in the assay was 1.25% (maximum tolerable DMSO concentration=6%). In the assays where the effect of human serum on the activity of the compounds against S. aureus was tested, human serum was added at a final concentration of 10%. The plates were incubated at 35° C. for 16-20 hours. At the end of incubation the bacterial growth was quantified fluorometrically. For this, resazurin was added to all wells and the plates were re-incubated. The incubation time is dependent on the type of bacteria. A change in color from blue to pink indicated the growth of bacteria. The fluorescence was read in computer-controlled fluorometer (Fluoroskan Ascent FL, Labsystems) at an excitation wavelength 540 nm and an emission wavelength of 590 nm. The % growth inhibition achieved by the compounds was calculated according to standard methods. The IC90 (expressed in μg/ml) was defined as the 90% inhibitory concentration for bacterial growth. A panel of reference compounds were simultaneously tested for QC approval.

S. aureus = test: Antibacterial susceptibility testing, IC90 with 10% human serum (STA + 10% HS 361.169); type: cell-based, Staphylococcus aureus; conditions: S. aureus with 10% human serum
Protocol: as §1, §2, §3
The results are depicted in the table D2 below (STA+10% HS).

Compound | FabI IC50 [1] [µg/mL] | TOX HELAM (222.125) CC50 (Human HelaM cells) [µg/mL] | STA (361.159) IC90 [2] [µg/mL] | STA + 10% HS (361.169) IC90 (S. aureus) [µg/mL]
O=C1CCc2cc(/C=C/C(=O)N3CC=C(c4cccc(C(F)(F)F)c4)CC3)cnc2N1 [compound 19] | 1.12 |  |  | 
O=C1CCc2cc(/C=C/C(=O)N3CC=C(c4ccc5c(c4)OCO5)CC3)cnc2N1 [compound 8] | 0.53 |  |  | 
O=C1CCc2cc(/C=C/C(=O)N3CCC(CCOc4ccc(F)cc4)CC3)cnc2N1 [compound 30] | 1.34 |  |  | 
O=C1CCc2cc(/C=C/C(=O)N3CC=C(c4ccccc4Cl)CC3)cnc2N1 [compound 16] | 0.58 | 8.04 | 3.31 | 8.52
O=C1CCc2cc(/C=C/C(=O)N3CCC(Cc4ccccn4)CC3)cnc2N1 [compound 35] | 0.48 | >9.456 | 5.14 | 3.94
O=C1CCc2cc(/C=C/C(=O)N3CCN(c4ccccc4)CC3)cnc2N1 [compound 25] | 1.48 |  |  | 
O=C1CCc2cc(/C=C/C(=O)N3CCC(O)(c4ccc(Cl)cc4)CC3)cnc2N1 [compound 11] | 0.80 |  |  | 
O=C1CCc2cc(/C=C/C(=O)N3CCC(COc4ccc(F)cc4)CC3)cnc2N1 [compound 34] | 0.47 | >10.2852 | 9.94 | 12.51
O=C1CCc2cc(/C=C/C(=O)N3CCN(Cc4ccccc4)CC3)cnc2N1 [compound 24] | 7.17 |  |  | 
O=C1CCc2cc(/C=C/C(=O)N3CC=C(c4ccco4)CC3)cnc2N1 [compound 9] | 0.34 | >8.776 | 2.91 | 2.65
O=C1CCc2cc(/C=C/C(=O)N3CCC(c4cccc(O)c4)CC3)cnc2N1 [compound 5] | 0.35 | >9.481 | 10.52 | 11.14
O=C1CCc2cc(/C=C/C(=O)N3CCCC(Oc4ccccc4)C3)cnc2N1 (centres unmarked) [compound 1] | 3.52 |  |  | 
COc1ccccc1CC1=CCN(C(=O)/C=C/c2cnc3c(c2)CCC(=O)N3)CC1 [compound 14] | 1.06 | >10.1352 | 6.93 | 13.06
O=C1CCc2cc(/C=C/C(=O)N3CCC(CC4CCCS4)CC3)cnc2N1 (centres unmarked) [compound 36] | 0.61 | >9.684 | 8.43 | 11.38
O=C1CCc2cc(/C=C/C(=O)N3CCC(Cn4cnnc4)CC3)cnc2N1 [compound 38] | >7.31 |  |  | 
O=C1CCc2cc(/C=C/C(=O)N3CC=C(c4ccoc4)CC3)cnc2N1 [compound 10] | 0.48 | >8.776 | 10.43 | 20.34
O=C1CCc2cc(/C=C/C(=O)N3CCc4ccccc4C3)cnc2N1 [compound 3] | 0.48 | >8.374 | 8.67 | 10.79
CC1CN(C(=O)/C=C/c2cnc3c(c2)CCC(=O)N3)CC=C1c1ccccc1 (centres unmarked) [compound 27] | 0.57 | >9.381 | 6.13 | 21.99
COc1ccccc1C1=CCN(C(=O)/C=C/c2cnc3c(c2)CCC(=O)N3)CC1 [compound 2] | 0.32 | >9.783 | 1.97 | 2.99

Compound | FabI IC50 [1] [µg/mL] | TOX HELAM (222.125) CC50 (Human HelaM cells) [µg/mL] | STA (361.159) IC90 [2] [µg/mL] | STA + 10% HS (361.169) IC90 (S. aureus) [µg/mL]
O=C1CCc2cc(/C=C/C(=O)N3CCC(Cc4ccc5ccccc5n4)CC3)cnc2N1 [compound 41] | 3.39 |  |  | 
O=C1CCc2cc(/C=C/C(=O)N3CCC(Cc4coc5cc(F)ccc45)CC3)cnc2N1 [compound 31] | 0.79 |  |  | 
O=C1CCc2cc(/C=C/C(=O)N3CCC(c4ccccc4)CC3)cnc2N1 [compound 4] | 0.29 | >9.079 | 4.99 | 4.60
O=C1CCc2cc(/C=C/C(=O)N3CCC(C(=O)c4ccccc4)CC3)cnc2N1 [compound 6] | 1.74 |  |  | 
COc1ccccc1C1=CCCN(C(=O)/C=C/c2cnc3c(c2)CCC(=O)N3)C1 [compound 21] | 0.80 |  |  | 
O=C1CCc2cc(/C=C/C(=O)N3CC=CCC3)cnc2N1 [compound 15] | 3.57 |  |  | 
O=C1CCc2cc(/C=C/C(=O)N3CC=C(c4cc5ccccc5o4)CC3)cnc2N1 [compound 17] | 1.91 |  |  | 
COc1ccc(C2=CCN(C(=O)/C=C/c3cnc4c(c3)CCC(=O)N4)CC2)cc1 [compound 23] | 0.85 |  |  | 
O=C1CCc2cc(/C=C/C(=O)N3CCC(Cc4nc5ccccc5s4)CC3)cnc2N1 [compound 32] | 1.72 |  |  | 
O=C1CCc2cc(/C=C/C(=O)N3CCC(Cn4ccc5ccccc54)CC3)cnc2N1 [compound 39] | 2.74 |  |  | 
O=C1CCc2cc(/C=C/C(=O)N3CCC(Oc4ccccc4)CC3)cnc2N1 [compound 28] | 0.93 |  |  | 
O=C1CCc2cc(/C=C/C(=O)N3CC=C(c4ccccc4)CC3)cnc2N1 [compound 7] | 0.41 | >9.028 | 2.07 | 2.54
COc1cccc(C2=CCN(C(=O)/C=C/c3cnc4c(c3)CCC(=O)N4)CC2)c1 [compound 22] | 0.93 | >9.783 | 21.16 | >24.5733
O=C1CCc2cc(/C=C/C(=O)N3CCC(CCOc4ccccc4)CC3)cnc2N1 [compound 29] | 1.00 |  |  | 
O=C1CCc2cc(/C=C/C(=O)N3CC=C(c4cccnc4)CC3)cnc2N1 [compound 18] | 0.67 |  |  | 
O=C1CCc2cc(/C=C/C(=O)N3CCC(Cn4cncn4)CC3)cnc2N1 [compound 40] | 1.43 |  |  | 
COc1ccccc1C1CCN(C(=O)/C=C/c2cnc3c(c2)CCC(=O)N3)CC1 [compound 13] | 0.53 |  |  | 
Cc1ccc(-c2ccccc2)n1CC1CCN(C(=O)/C=C/c2cnc3c(c2)CCC(=O)N3)CC1 [compound 42] | 10.18 |  |  | 
O=C1CCc2cc(/C=C/C(=O)N3CCCCC3)cnc2N1 [compound 26] | 2.73 |  |  | 
